Reference: patent US5200422A, “Benzimidazole derivatives, their preparation and use” (priority 1991, dated 1993)
Where two headings read alike, the source gives them in different places.

What was measured:
Type in all cases: cell-based
[1] = target: BKCa channel (Bos taurus, UniProt Q28204); test: Patch-clamp, cultured bovine aortic smooth muscle cells
Procedure: (§1) All experiments were performed with patch-clamp technique (Hamill et al., Pflugers Arch. 391, 85-100 (1981). The ion composition of the internal solution was (in mM) 4 NaCl, 140 KCl, 1 CaCl2, 1 MgCl2, 2 EGTA, 10 HEPES and the external solution contained 140 NaCl, 4 KCl, 2 CaCl2, 1 MgCl2 and 10 HEPES.

[2] = tested on: BKCa channel; test: Single channel experiments, inside-out patches of cerebellar granule cell membrane
Procedure: as §1
In inside-out patches of cerebellar granule cell membrane single BKCa channels were activated by for example 5-trifluoromethyl-1-(5-chloro-2-hydroxyphenyl)-1,3-dihydro-2H-benzimidazole-2-one (3-10 μM), 5-trifluoromethyl-I-(2-hydroxyphenyl)-1,3-dihydro-2H-benzimidazole-2-one ([…]), 5-trifluoromethyl-1-(5-phenyl-2-hydroxyphenyl)-1,3-dihydro-2H-benzimidazole-2-one (3-30 μM). […] No effect was found on the delayed rectifier K^+ channel or on the Cl^- channels also present in the patches.
(§2) The BKCa channel in granule cells has been studied in symmetric 144 mM K^+, and under these conditions the average conductance is 154 pS (76 pS with 4 mM external K^+).

[3] = tested on: 160-180 pS BKCa channel; test: Patch-clamp, cultured guinea pig tracheal smooth muscle cells
Procedure: as §1

[4] = tested on: N1E-115 neuroblastoma cells; test: Whole cell recordings: membrane potential in current clamp mode; details: 30 μM to the bath
Procedure: as §1
The membrane potential of N1E-115 neuroblastoma cells was determined in whole-cell recordings using current clamp mode (HEKA EPC-9 patch-clamp amplifier) Due to the high-resistance seal and the large size of these cells, the recorded membrane potential stayed stable for periods of 30-60 min, although at somewhat depolarized values (-15--60 Mv).
The equilibrium potentials for K^+, Cl^-, and Na^+ in these experiments were -90 mV, 0 mV, and +90 mV, respectively (cf. ion composition above) Thus, since potassium is the only ion having a reversal potential more negative than the resting membrane potential, the observed hyperpolarization induced by the test compound must be explained through an increased potassium conductance.

[5] = tested on: BKCa channel; test: Outside-out patches of granule cells, channel block; details: silent periods interdispersed with periods of low or normal activity
Procedure: as §1, §2

Chain of BKCa channel (Bos taurus, UniProt Q28204) (Q28204 whole entry): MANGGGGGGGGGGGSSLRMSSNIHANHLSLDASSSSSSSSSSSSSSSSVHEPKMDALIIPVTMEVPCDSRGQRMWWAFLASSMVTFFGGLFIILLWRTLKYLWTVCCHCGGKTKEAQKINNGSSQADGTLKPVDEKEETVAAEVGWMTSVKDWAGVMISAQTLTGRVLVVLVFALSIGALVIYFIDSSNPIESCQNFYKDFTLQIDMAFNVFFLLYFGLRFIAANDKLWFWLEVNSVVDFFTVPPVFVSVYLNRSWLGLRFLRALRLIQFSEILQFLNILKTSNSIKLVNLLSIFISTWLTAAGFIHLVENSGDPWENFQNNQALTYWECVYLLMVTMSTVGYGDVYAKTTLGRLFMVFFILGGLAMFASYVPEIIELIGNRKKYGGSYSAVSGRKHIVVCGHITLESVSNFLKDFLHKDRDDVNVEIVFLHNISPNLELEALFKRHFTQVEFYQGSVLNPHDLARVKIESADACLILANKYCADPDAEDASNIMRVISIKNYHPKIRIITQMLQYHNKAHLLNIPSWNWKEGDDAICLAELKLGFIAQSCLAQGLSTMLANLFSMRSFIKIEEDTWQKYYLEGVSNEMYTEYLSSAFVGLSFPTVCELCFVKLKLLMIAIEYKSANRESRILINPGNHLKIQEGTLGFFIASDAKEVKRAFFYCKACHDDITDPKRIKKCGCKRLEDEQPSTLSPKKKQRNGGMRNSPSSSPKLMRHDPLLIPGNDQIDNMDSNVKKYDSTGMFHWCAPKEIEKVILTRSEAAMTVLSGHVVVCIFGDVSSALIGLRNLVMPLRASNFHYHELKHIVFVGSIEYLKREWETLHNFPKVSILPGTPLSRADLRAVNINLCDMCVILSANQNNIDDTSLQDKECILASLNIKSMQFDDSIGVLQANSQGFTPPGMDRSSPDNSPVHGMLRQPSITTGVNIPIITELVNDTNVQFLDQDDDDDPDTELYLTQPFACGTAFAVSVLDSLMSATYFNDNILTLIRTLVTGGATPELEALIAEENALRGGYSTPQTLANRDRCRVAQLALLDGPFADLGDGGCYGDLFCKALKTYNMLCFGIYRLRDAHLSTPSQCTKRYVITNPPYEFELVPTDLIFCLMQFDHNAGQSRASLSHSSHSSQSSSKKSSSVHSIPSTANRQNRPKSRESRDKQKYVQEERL
Chain of BKCa channel (Bos taurus, UniProt Q28204) (Q28067 whole entry partner): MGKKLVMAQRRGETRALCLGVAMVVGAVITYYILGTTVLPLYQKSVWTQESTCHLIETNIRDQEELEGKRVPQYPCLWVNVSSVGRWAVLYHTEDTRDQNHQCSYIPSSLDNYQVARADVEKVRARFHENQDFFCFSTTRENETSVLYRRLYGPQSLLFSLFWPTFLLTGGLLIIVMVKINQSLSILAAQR

## Oc1ccccc1-n1c(=S)[nH]c2cc(C(F)(F)F)ccc21 [1,3-dihydro-1-(2-hydroxyphenyl)-5-trifluoromethyl-2H-benzimidazole-2-thion]
[1]; 3-30 μM
  activation of the BKCa channel: significantly activated

## O=c1[nH]c2cc(C(F)(F)F)ccc2n1-c1cc2ccccc2cc1O [1,3-dihydro-1-(3-hydroxy-2-naphthyl)-5-trifluoromethyl-2H-benzimidazol-2-one]
[1]; 3-30 μM
  activation of the BKCa channel: significantly activated

## O=c1[nH]c2cc(Cl)c(Cl)cc2n1-c1cc(Cl)ccc1O [1,3-dihydro-1-(5-chloro-2-hydroxyphenyl)-5,6-dichloro-2H-benzimidazole-2-one]
[1]; 3-30 μM
  activation of the BKCa channel: significantly activated

## O=c1[nH]c2cc(C(F)(F)F)c([N+](=O)[O-])cc2n1-c1cc(Cl)cc([N+](=O)[O-])c1O [1,3-dihydro-1-(5-chloro-3-nitro-2-hydroxyphenyl)-5-trifluoromethyl-6-nitro-2H-benzimidazol-2-one]
[1]; 1-3 μM
  activation of the BKCa channel: significantly activated

## O=c1[nH]c2cc(C(F)(F)F)ccc2n1-c1cc(-c2ccccc2)ccc1O [1,3-dihydro-1-(5-phenyl-2-hydroxyphenyl)-5-trifluoromethyl-2H-benzimidazol-2-one]
[1]; 3-30 μM
  activation of the BKCa channel: significantly activated
[2]; 3-30 μM
  activation of single BKCa channels: activated

## O=c1[nH]c2cc(C(F)(F)F)ccc2n1-c1cc(Cl)ccc1O [1-(5-chloro-2-hydroxyphenyl)-5-trifluoromethyl-1,3-dihydro-2H-benzimidazol-2-one]
[1]; 3-30 μM
  activation of the BKCa channel: significantly activated
[3]
  activation of the BKCa channel: potently activated
[2]; 3-10 μM
  activation of single BKCa channels: activated
[4]
  delay before hyperpolarization of the cells: 1 to 3 min
[4]; current clamp, SD=-5 Mv, n=8
  average hyperpolarization: -14 Mv

## O=c1[nH]c2cc(C(F)(F)F)ccc2n1-c1ccccc1O [5-trifluoromethyl-1,3-dihydro-1-(2-hydroxyphenyl)-2H-benzimidazol-2-one]
[2]
  activation of single BKCa channels: activated

## Charybdotoxin
[5]
  block of the BKCa channel: blocks the channel
